Experimental findings from publication PMC7690883, “Pseudoceratonic Acid and Moloka’iamine Derivatives from the Red Sea Verongiid Sponge Pseudoceratina arabica” (Marine Drugs, 2020) are described below.

Holding throughout (type): cell-based
One test deals with E. coli (ATCC 25922). Kind of test: Disc diffusion assay, E. coli. As to conditions: Escherichia coli. As for the experimental part: (§1) The antimicrobial evaluation of the compounds against E. coli, S. aureus and C. albicans at 50 µg/disc was carried out using disc diffusion assay. […] The other compounds were weakly active against the three pathogens with inhibition zones of 6–9 mm (Table 3).
(§2) Using S. aureus (ATCC 25923), E. coli (ATCC 25922), and C. albicans (ATCC 14053), a disc diffusion assay was carried out to evaluate the antimicrobial effects of 1–6 at 50 µg/disc as reported before. Ketoconazole (50 µg/disc) and ciprofloxacin (5.0 µg/disc) served as antibiotics controls.
(In agar diffusion tests the substance spreads into inoculated agar from a disc or well.)

The next test deals with S. aureus (ATCC 25923). Description: Disc diffusion assay, S. aureus. Particulars: Staphylococcus aureus. On the procedure:
as §1, §2

The test system of another test is C. albicans (ATCC 14053). Description: Disc diffusion assay, C. albicans. Particulars: Candida albicans. On the procedure:
as §1, §2

A further test deals with E. coli. Description: MIC determination (dilution method), E. coli. As to conditions: Escherichia coli; Mueller Hinton Broth, 48 h at 37 °C. As for the experimental part:
(§3) The minimal inhibitory concentrations (MICs) of the compounds were evaluated using a […] method (Table 3).
(§4) The MIC values of the compounds were determined of using a macrodilution method. Briefly, the compounds were dissolved in MeOH at a final concentration of 2000 µg/mL. Ciprofloxacin and ketoconazole were dissolved in H2O at final concentrations of 100 µg/mL. Syringe filters (0.2 µm) were used for sterilization of all stock solutions. Two-fold serial dilutions of the solutions were used in Mueller Hinton Broth (MHB) to give concentrations of 1.0–1000 µg/mL (for the compounds) and 0.125–64 µg/mL (for ciprofloxacin and ketoconazole). 500 µL from the 10^6 CFU/mL microbial suspensions were added in sterile tubes to give inoculua of 5 × 10^5 CFU/mL. Further, 100 µL of the stock solutions of the compounds and antibiotics were added into the tubes. Control tubes with test microorganisms only and MeOH were prepared. […] The tubes were kept for 48 h at 37 °C.

The next test concerns S. aureus. Kind of test: MIC determination (dilution method), S. aureus. Particulars: Staphylococcus aureus; Mueller Hinton Broth, 48 h at 37 °C. As for the experimental part:
as §3, §4

A further test deals with C. albicans. Description: MIC determination (dilution method), C. albicans. As to conditions: Candida albicans, read-out: C. albicans MIC. As for the experimental part:
as §3, §4

Test [1] deals with MDA-MB-231 (triple-negative breast cancer). Kind of test: MTT cytotoxicity assay, MDA-MB-231. Particulars: Homo sapiens, read-out: IC50 MDA-MB-231. On the procedure:
(§5) The cytotoxic and antiproliferative effects of the compounds against MDA-MB-231, HeLa, and HCT 116 cell lines were evaluated using MTT (3-(4,5-Dimethylthiazol-2-yl)-2,5-diphenyltetrazolium bromide) assay (Table 4).
(§6) The cell lines MDA-MB-231 (triple-negative breast cancer, ATCC HTB-26), HeLa (human cervical carcinoma, ATCC CCL-2), HCT 116 (colorectal carcinoma, ATCC CCL-247) were used for the evaluation of the cytotoxicity of the compounds. In addition, NHDF (normal human dermal fibroblasts) cells were used to evaluate the selectivity of compound 2 against the cancerous cell lines. DMEM, with Pen–Strep. (1%) and FBS (10%), was used for culturing MDA-MB-231 cells, while RPMI 1640, with Pen–Strep. (1%) and FBS (10%), was used for culturing HCT 116 and HeLa cells. Finally, NHDF cells were cultured in fibroblast basal medium complemented with Pen–Strep. (1% v/v), heat-inactivated fetal bovine serum (FBS) (2% v/v), insulin (5 µg/mL) and basic fibroblast growth factor (1 ng/mL). Culture of all cells was completed at 37 °C with 5% CO2 and 95% humidity.
(§7) The cytotoxic effects of the compounds were evaluated using MTT assay as reported earlier. Briefly, all cells kept overnight in 5% CO2/air and at 37 °C. Tested compounds were added to the upper row of a 96-well plate followed by 1:4 (v/v) serial dilutions. After 72 h incubation of the compounds with the cells (10,000 cells/well for HCT 116 and NHDF, and 12,000 cells/well for HeLa and MDA-MB-231), the cells’ viability was calculated at 490 nm as reported before. 5-Fluorouracil (5-FU) and DMSO were used as positive and negative controls. The IC50 values reported in […] represent the mean of three separate experiments. A concentration of 10 µM was set as a cutoff value in this assay.
On the technique in general: Tetrazolium assays rely on reduction of a dye to a coloured formazan, in cell work by metabolically active cells.

Test [2] concerns HeLa (human cervical carcinoma). Description: MTT cytotoxicity assay, HeLa. As to conditions: 72 h, read-out: IC50 HeLa. As for the experimental part: as §5, §6, §7
The test system of test [3] is HCT 116 (colorectal carcinoma). Description: MTT cytotoxicity assay, HCT 116. As to conditions: Homo sapiens, read-out: IC50 HCT 116. On the procedure:
as §5, §6, §7

For test [4], the system named is NHDF (normal human dermal fibroblasts). Kind of test: MTT cytotoxicity assay, NHDF. Particulars: 72 h. As for the experimental part:
as §5, §6
The cytotoxic effects of the compounds were evaluated using MTT assay as reported earlier. […] After 72 h incubation of the compounds with the cells (10,000 cells/well for HCT 116 and NHDF, and 12,000 cells/well for HeLa and MDA-MB-231), the cells’ viability was calculated at 490 nm as reported before. […]

Setting [5] is: ATCC25922, read-out: E. coli Inhibition Zone.
The mark [6] stands for this setting: ATCC25923, read-out: S. aureus Inhibition Zone.
[7] abbreviates: ATCC14053, read-out: C. albicans Inhibition Zone.
Setting [8] is: MDA-MB-231, MTT, 72 h, cutoff 10 µM.
The mark [9] stands for this setting: Homo sapiens, HeLa, MTT, cutoff 10 µM.
Where [10] appears, read: HCT-116, MTT, 72 h, cutoff 10 µM.
The mark [11] stands for this setting: ATCC14053, disc diffusion, 50 µg/disc (compounds and ketoconazole), read-out: C. albicans Inhibition Zone.
Setting [12] is: Mueller Hinton Broth, 48 h at 37 °C.

Molecules are shown by their SMILES. Converted amounts (≈) assume the structure as drawn. Where two headings read alike, the source gives them in different places. A value given as a limit tells only on which side of the number the result lay.

Turning to `CCOC(=O)NCCCOc1c(Br)cc(CCN)cc1Br` [Compound 3, ceratinine O], the zone of inhibition at 50 µg/disc in the test with E. coli (ATCC 25922) (setting [5]) amounted to 6 mm; in the test with S. aureus (ATCC 25923) (setting [6]), 8 mm; in the test with C. albicans (ATCC 14053) (setting [7]), 9 mm. Also, the minimal inhibitory concentration (MIC) was found to be 125 µg/mL (≈ 295 µM) against E. coli, 64 µg/mL (≈ 151 µM) against S. aureus and 64 µg/mL (≈ 151 µM) in the test on C. albicans (48 h). Moreover, the IC50 in [1] (MDA-MB-231, 72 h) is not below 10 µM; in test [2] (Homo sapiens, HeLa), not below 10 µM; in test [3] (HCT-116, 72 h), 9.5 ± 0.85 µM.

In the case of `NCCCOc1c(Br)cc(C(O)CN)cc1Br` (centres unmarked) [Compound 5, hydroxymoloka’iamine], the IC50 in test [1] (setting [8]), in test [2] (setting [9]) and in test [3] (setting [10]) was not below 10 µM each time.

Turning to `O=c1[nH]cc(F)c(=O)[nH]1` [Compound 5-FU, 5-Fluorouracil, reference compound], the values for the IC50 in test [1] (setting [8]), in test [2] (setting [9]) and in [3] (setting [10]) were 13 ± 0.3 µM, 12.3 ± 0.25 µM and 4.6 ± 0.23 µM, respectively.

Take `CC(=O)N1CCN(c2ccc(OCC3COC(Cn4ccnc4)(c4ccc(Cl)cc4Cl)O3)cc2)CC1` (centres unmarked) [Ketoconazole, reference compound]: the zone of inhibition at 50 µg/disc in the test on C. albicans (ATCC 14053) (setting [11]) came out at 30 mm. In addition, the MIC in the test with C. albicans (setting [12]) turned out to be 0.5 µg/mL (≈ 0.941 µM).

`N#CC(=O)NCCCOc1c(Br)cc(CCN)cc1Br` [Compound 6, ceratinamine]: the zone of inhibition at 50 µg/disc with E. coli (ATCC 25922) (setting [5]) is 7 mm; in the test with S. aureus (ATCC 25923) (setting [6]) it was 9 mm; with C. albicans (ATCC 14053) (setting [7]), 12 mm. Moreover, the MIC in the test on E. coli worked out at 125 µg/mL (≈ 309 µM); in the test on S. aureus, 64 µg/mL (≈ 158 µM); with C. albicans (48 h), 32 µg/mL (≈ 79 µM). The IC50 in test [1] (MDA-MB-231, 72 h) is not below 10 µM; in test [2] (Homo sapiens, HeLa), not below 10 µM; in test [3] (HCT-116, 72 h), not below 10 µM.

For the compound `NCCCOc1c(Br)cc(CCN)cc1Br` [Compound 4, moloka’iamine], the zone of inhibition at 50 µg/disc worked out at 6 mm with E. coli (ATCC 25922) (setting [5]), 7 mm in the test on S. aureus (ATCC 25923) (setting [6]) and 6 mm in the test on C. albicans (ATCC 14053) (setting [7]). The MIC in the test with E. coli, with S. aureus and in the test on C. albicans (48 h) was 125 µg/mL (≈ 355 µM) each time. Moreover, the IC50 in test [1] (MDA-MB-231, 72 h) is not below 10 µM; in [2] (Homo sapiens, HeLa), not below 10 µM; in [3] (HCT-116, 72 h), not below 10 µM.

For the compound `O=C(O)c1cn(C2CC2)c2cc(N3CCNCC3)c(F)cc2c1=O` [Ciprofloxacin, reference compound], the zone of inhibition at 5 µg/disc with E. coli (ATCC 25922) (ATCC25922, disc diffusion, ciprofloxacin 5.0 µg/disc) worked out at 30 mm; in the test with S. aureus (ATCC 25923) (ATCC25923, disc diffusion, ciprofloxacin 5.0 µg/disc) it was 22 mm. The MIC worked out at 0.25 µg/mL (≈ 0.754 µM) against E. coli and 0.5 µg/mL (≈ 1.51 µM) against S. aureus.

For the compound `N#CC(=O)NCCCOc1c(Br)cc(CCNC=C2C(=O)C=CC2=O)cc1Br` [Compound 2, ceratinine N], the zone of inhibition at 50 µg/disc with E. coli (ATCC 25922) (ATCC25922, disc diffusion, 50 µg/disc, read-out: E. coli Inhibition Zone) came out at 6 mm; with S. aureus (ATCC 25923) (ATCC25923, disc diffusion, 50 µg/disc, read-out: S. aureus Inhibition Zone), 7 mm; in the test with C. albicans (ATCC 14053) (setting [11]) it was 16 mm. The MIC is 125 µg/mL (≈ 245 µM) in the test with E. coli, 125 µg/mL (≈ 245 µM) against S. aureus and 16 µg/mL (≈ 31.3 µM) with C. albicans (setting [12]). In addition, the IC50 in test [1] (setting [8]) came to 3.1 ± 0.29 µM; in [2] (setting [9]) it was 2.1 µM; in test [2] (MTT, cutoff 10 µM), 2.3 ± 0.16 µM; in test [3] (setting [10]) it was 2.9 ± 0.18 µM; in [4] it was 3.5 ± 0.3 µM.

The term MIC denotes the lowest concentration that inhibits growth of the organism. The term IC50 denotes the concentration at which inhibition is half-maximal.
